Assay results: article PMC10817512, “OSMAC-Based Discovery and Biosynthetic Gene Clusters Analysis of Secondary Metabolites from Marine-Derived Streptomyces globisporus SCSIO LCY30” (Marine Drugs, 2023)
Values after ≈ are worked out from the molar mass of the structure shown. Read-outs that look alike come from different tables or passages of the source.

How the values were obtained:
[1] = system: Staphylococcus simulans AKA1; assay: Antibacterial MIC, CLSI microdilution; assay type: cell-based; details: Staphylococcus simulans AKA1, 37 °C, 16–18 h
[2] = system: Bacillus subtilis BS01; assay: Antibacterial MIC, CLSI microdilution; assay type: cell-based; details: Bacillus subtilis BS01, 37 °C, 16–18 h
Procedure: (§1) An antibacterial activity test of compounds 1–3 was conducted according to a standard protocol provided by the Clinical and Laboratory Standards Institute (CLSI). Sixteen bacterial strains were used, including Staphylococcus aureus ATCC 29213, Staphylococcus aureus 16339, Staphylococcus aureus 1862, Staphylococcus aureus 3090, Staphylococcus aureus 991, Staphylococcus aureus 669, Staphylococcus aureus 745324, Staphylococcus aureus 16162, Staphylococcus aureus (cfr) GDE4P037P, Enterococcus faecalis ATCC 29212, Enterococcus faecalis 36950, Micrococcus luteus ML01, MRSA, Bacillus subtilis BS01, Enterococcus gallinarum 5F52C, and Enterococcus faecium 36711. Compounds 1–3 were dissolved in DMSO at a concentration of 3.2 mg/mL, and vancomycin and ampicilin were used as antibacterial control agents. […] All the assays were carried out in triplicate.

[3] = system: Enterococcus faecalis 36950; assay: Antibacterial MIC, CLSI microdilution; assay type: cell-based; details: Enterococcus faecalis 36950, 37 °C, 16–18 h
Procedure: as §1

[4] = system: Enterococcus faecalis ATCC 29212; assay: Antibacterial MIC, CLSI microdilution; assay type: cell-based; details: Enterococcus faecalis ATCC 29212, 37 °C, 16–18 h
Procedure: as §1

[5] = system: Enterococcus faecium 36711; assay: Antibacterial MIC, CLSI microdilution; assay type: cell-based; details: Enterococcus faecium 36711, 37 °C, 16–18 h
Procedure: as §1

[6] = system: Enterococcus gallinarum 5F52C; assay: Antibacterial MIC, CLSI microdilution; assay type: cell-based; details: Enterococcus gallinarum 5F52C, 37 °C, 16–18 h
Procedure: as §1

[7] = system: Micrococcus luteus ML01; assay: Antibacterial MIC, CLSI microdilution; assay type: cell-based; details: 37 °C, 16–18 h
Procedure: as §1

[8] = system: Staphylococcus aureus (cfr) GDE4P037P; assay: Antibacterial MIC, CLSI microdilution; assay type: cell-based; details: Staphylococcus aureus (cfr) GDE4P037P, 37 °C, 16–18 h
Procedure: as §1

[9] = system: Staphylococcus aureus 16162; assay: Antibacterial MIC, CLSI microdilution; assay type: cell-based; details: Staphylococcus aureus 16162, 37 °C, 16–18 h
Procedure: as §1

[10] = system: Staphylococcus aureus 16339; assay: Antibacterial MIC, CLSI microdilution; assay type: cell-based; details: Staphylococcus aureus 16339, 37 °C, 16–18 h
Procedure: as §1

[11] = system: Staphylococcus aureus 1862; assay: Antibacterial MIC, CLSI microdilution; assay type: cell-based; details: Staphylococcus aureus 1862, 37 °C, 16–18 h
Procedure: as §1

[12] = system: Staphylococcus aureus 3090; assay: Antibacterial MIC, CLSI microdilution; assay type: cell-based; details: Staphylococcus aureus 3090, 37 °C, 16–18 h
Procedure: as §1

[13] = system: Staphylococcus aureus 669; assay: Antibacterial MIC, CLSI microdilution; assay type: cell-based; details: Staphylococcus aureus 669, 37 °C, 16–18 h
Procedure: as §1

[14] = system: Staphylococcus aureus 745324; assay: Antibacterial MIC, CLSI microdilution; assay type: cell-based; details: Staphylococcus aureus 745324, 37 °C, 16–18 h
Procedure: as §1

[15] = system: Staphylococcus aureus 991; assay: Antibacterial MIC, CLSI microdilution; assay type: cell-based; details: Staphylococcus aureus 991, 37 °C, 16–18 h
Procedure: as §1

[16] = system: Staphylococcus aureus ATCC 29213; assay: Antibacterial MIC, CLSI microdilution; assay type: cell-based; details: Staphylococcus aureus ATCC 29213, 37 °C, 16–18 h
Procedure: as §1

[17] = system: MRSA; assay: Antibacterial MIC, CLSI microdilution; assay type: cell-based, Staphylococcus aureus; details: 37 °C, 16–18 h
Procedure: as §1

[18] = system: Bacillus subtilis; parameters: method as in PMID 18396903; details: ref [35]; cited from earlier work
[19] = system: cervical cancer cell line Hela; assay: Cell growth inhibitory (cytotoxic) activity assay; assay type: cell-based, human
Excerpt: (§2) The cell growth inhibitory activities of compounds 1–3 against fourteen different human cell lines (human liver cell line LX-2; hepatocellular cancer line HEPG2; human intestinal epithelial cell line NCM460; colorectal cancer cell lines HCT116 and SW480; normal human breast cell line MCF-10A; breast cancer cell line MCF7; triple-negative breast cancer cell lines MDA-MB-231, MDA-MB-468, and Bt-549; human umbilical vein endothelial cell line; lung cancer cell line A549; cervical cancer cell line Hela; and cholangiocarcinoma cell line RBE) were tested according to the previously published methods. SPSS software version 22.0 was used to test the IC50 values. Cisplatin and adriamycin were used as positive control agents, and all the experiments were carried out in triplicate.

[20] = system: cholangiocarcinoma cell line RBE; assay: Cell growth inhibitory (cytotoxic) activity assay; assay type: cell-based, human
Excerpt: as §2

[21] = system: colorectal cancer cell line HCT116; assay: Cell growth inhibitory (cytotoxic) activity assay; assay type: cell-based, human
Excerpt: as §2

[22] = system: colorectal cancer cell line SW480; assay: Cell growth inhibitory (cytotoxic) activity assay; assay type: cell-based, human; details: SW480 (colorectal cancer)
Excerpt: as §2

[23] = system: hepatocellular cancer line HEPG2; assay: Cell growth inhibitory (cytotoxic) activity assay; assay type: cell-based, human
Excerpt: as §2

[24] = system: lung cancer cell line A549; assay: Cell growth inhibitory (cytotoxic) activity assay; assay type: cell-based, human
Excerpt: as §2

[25] = system: triple-negative breast cancer cell line Bt-549; assay: Cell growth inhibitory (cytotoxic) activity assay; assay type: cell-based, human
Excerpt: as §2

[26] = system: triple-negative breast cancer cell line MDA-MB-231; assay: Cell growth inhibitory (cytotoxic) activity assay; assay type: cell-based, human
Excerpt: as §2

[27] = system: triple-negative breast cancer cell line MDA-MB-468; assay: Cell growth inhibitory (cytotoxic) activity assay; assay type: cell-based, human
Excerpt: as §2

[28] = system: breast cancer cell line MCF7; assay: Cell growth inhibitory (cytotoxic) activity assay; assay type: cell-based, human
Excerpt: SPSS software version 22.0 was used to test the IC50 values.

[29] = system: human intestinal epithelial cell line NCM460; assay: Cell growth inhibitory (cytotoxic) activity assay; assay type: cell-based; details: NCM460 (normal intestinal epithelial cell line)
Excerpt: as §2

[30] = system: human liver cell line LX-2; assay: Cell growth inhibitory (cytotoxic) activity assay; assay type: cell-based; details: LX-2 (human liver cell line)
Excerpt: as §2

[31] = system: human umbilical vein endothelial cell line HUVEC; assay: Cell growth inhibitory (cytotoxic) activity assay; assay type: cell-based
Excerpt: as §2

[32] = system: normal human breast cell line MCF-10A; assay: Cell growth inhibitory (cytotoxic) activity assay; assay type: cell-based; details: MCF-10A (normal human breast cell line)
Excerpt: as §2

Q: With `CC1(C)S[C@@H]2[C@H](NC(=O)[C@H](N)c3ccccc3)C(=O)N2[C@H]1C(=O)O` [Ampicillin, reference compound] as the molecule, how does the MIC ([1]; read-out: MIC) read?
A: The MIC was > 64 µg/mL.

Q: What about the MIC ([2]; read-out: MIC) of the same molecule?
A: Its MIC is 0.13 µg/mL (≈ 0.372 µM).

Q: And the MIC ([3]; read-out: MIC)?
A: The MIC was > 64 µg/mL.

Q: And the MIC ([4]; ATCC29212, read-out: MIC)?
A: The MIC was 1 µg/mL (≈ 2.86 µM).

Q: What about the MIC ([5]; read-out: MIC) of the same molecule?
A: The MIC was > 64 µg/mL.

Q: What about the MIC ([6]; read-out: MIC) of the same molecule?
A: Its MIC is 8 µg/mL (≈ 22.9 µM).

Q: And the MIC ([7]; Micrococcus luteus, ML01, Micrococcus luteus ML01, read-out: MIC)?
A: The MIC was 0.13 µg/mL (≈ 0.372 µM).

Q: What about the MIC ([8]; read-out: MIC) of the same molecule?
A: Its MIC is 16 µg/mL (≈ 45.8 µM).

Q: What about the MIC ([9]; read-out: MIC) of the same molecule?
A: The MIC was 16 µg/mL (≈ 45.8 µM).

Q: What about the MIC ([10]; read-out: MIC) of the same molecule?
A: Its MIC is 64 µg/mL (≈ 183 µM).

Q: What about the MIC ([11]; read-out: MIC) of the same molecule?
A: Its MIC is 4 µg/mL (≈ 11.4 µM).

Q: What about the MIC ([12]; read-out: MIC) of the same molecule?
A: The MIC was 16 µg/mL (≈ 45.8 µM).

Q: And the MIC ([13]; read-out: MIC)?
A: The MIC was 8 µg/mL (≈ 22.9 µM).

Q: And the MIC ([14]; read-out: MIC)?
A: Its MIC is 4 µg/mL (≈ 11.4 µM).

Q: What about the MIC ([15]; read-out: MIC) of the same molecule?
A: Its MIC is 4 µg/mL (≈ 11.4 µM).

Q: And the MIC ([16]; ATCC29213, read-out: MIC)?
A: Its MIC is 1 µg/mL (≈ 2.86 µM).

Q: What about the MIC ([17]; Staphylococcus aureus, read-out: MIC) of the same molecule?
A: Its MIC is 32 µg/mL (≈ 91.6 µM).

Q: With streptophenazine H as the molecule, how does the MIC [18] read?
A: The MIC was 15.6 µg/mL.

Q: What does the source list for mayamycin A [Mayamycin (1)]?
A: MIC [1]: 32 µg/mL; MIC [2]: 8 µg/mL; MIC [3]: 8 µg/mL; MIC [4]: 32 µg/mL; MIC [5]: 16 µg/mL; MIC [6]: 32 µg/mL; MIC ([7]; Micrococcus luteus ML01): 1 µg/mL; MIC [8]: 8 µg/mL; MIC [9]: 16 µg/mL; MIC [10]: 16 µg/mL; MIC [11]: 16 µg/mL; MIC [12]: 16 µg/mL; MIC [13]: 16 µg/mL; MIC [14]: 16 µg/mL; MIC [15]: 16 µg/mL; MIC [16]: 16 µg/mL; MIC [17]: 8 µg/mL; IC50 [19]: 910 nM; IC50 [20]: 1050 nM; IC50 [21]: 1080 nM; IC50 [22]: 1050 nM; IC50 [23]: 2120 nM; IC50 [24]: 1650 nM; IC50 ([25]; Bt-549 (TNBC)): 1880 nM; selective index ([25]; Bt-549 versus normal breast cells): 3.18; IC50 ([26]; MDA-MB-231 (TNBC)): 600 nM; selective index ([26]; MDA-MB-231 versus normal breast cells): 9.97; IC50 ([27]; MDA-MB-468 (TNBC)): 2220 nM; selective index ([27]; MDA-MB-468 versus normal breast cells): 2.69; IC50 [28]: 2100 nM; IC50 [29]: 2640 nM; IC50 [30]: 2310 nM; IC50 [31]: 1680 nM; IC50 [32]: 5980 nM
